Series [1] concerns the target T1, mOATP1B2 (Mus musculus, UniProt Q9JJL3).
T1 sequence (Q9JJL3 1-689): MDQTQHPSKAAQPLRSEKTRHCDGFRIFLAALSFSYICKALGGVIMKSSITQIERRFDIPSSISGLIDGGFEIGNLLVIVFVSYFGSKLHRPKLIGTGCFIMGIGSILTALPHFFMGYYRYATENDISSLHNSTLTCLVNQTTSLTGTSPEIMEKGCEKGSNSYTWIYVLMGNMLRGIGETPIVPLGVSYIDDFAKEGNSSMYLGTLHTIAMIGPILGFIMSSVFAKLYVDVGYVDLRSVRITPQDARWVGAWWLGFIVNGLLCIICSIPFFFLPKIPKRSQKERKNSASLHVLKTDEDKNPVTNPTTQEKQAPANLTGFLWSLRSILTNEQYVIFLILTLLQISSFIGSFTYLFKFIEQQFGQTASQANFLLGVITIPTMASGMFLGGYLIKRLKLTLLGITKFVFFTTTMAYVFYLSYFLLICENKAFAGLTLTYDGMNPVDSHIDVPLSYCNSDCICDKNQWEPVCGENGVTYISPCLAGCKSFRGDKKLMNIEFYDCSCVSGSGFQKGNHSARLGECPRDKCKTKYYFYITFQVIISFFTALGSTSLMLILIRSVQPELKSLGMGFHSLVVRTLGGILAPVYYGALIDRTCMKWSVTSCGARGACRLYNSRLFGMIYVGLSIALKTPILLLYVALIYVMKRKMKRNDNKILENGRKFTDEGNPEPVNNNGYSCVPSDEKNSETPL
In words: Inhibition of EβG uptake in HEK293 cells overexpressing mOATP1B2. The format is cell-based. Conditions: HEK293 mOATP1B2; inhibitor 10 μM, 15-min pre-incubation.

A short description of series [2]: Nilotinib levels in liver and DRG of mice. The format is in vivo, mouse. To be noted: OATP1B2(-/-) mice; for concentration at […]: DBA/1LacJ, mouse, liver, oral, Liver nilotinib.
Method: Pharmacokinetic studies. Pharmacokinetic studies were performed following an established protocol
0.5% hydroxypropyl-methylcellulose in water) was administered at a dose of 10 mg/kg . Serial whole blood
points, from the retro-orbital sinus vein for the subsequent two time-points, and cardiac puncture at the terminal time-point. Blood samples were centrifuged at 11,000 rpm for 5 min, and the plasma supernatants collected and stored at -80°C until analysis by a validated method based on reversed -phase liquid chromatography coupled to tandem mass-spectrometric detection (LC-MS/MS).
mg/kg or 100 mg/kg, and after 1.5 h, plasma, liver, and whole DRG were collected. All plasma and tissue specimens were stored at -80°C until further processing.
injection at a dose of 1 mg/kg. Whole blood samples were collected 0.08, 0.25, 0.5, 1, and 4 h, and livers were collected at the final time point.
Finally, the beads were removed, and the homogenized samples were stored at -80°C until analysis by LC-MS/MS.
Pharmacokinetic parameters were calculated by non -compartmental analysis using Phoenix WinNonlin version 8.0 (Certara). Peak plasma concentration (C max) was determined by visual inspection of the data from the concentration-time curves. The linear trapezoidal rule was used to obtain the area under the plasma concentration-time curve (AUC), and drug levels in tissues were corrected for
Determination of drug levels.
Quantiva triple quadrupole mass spectrometer from Thermo Fisher Scientific was used for LC-MS/MS
An Accucore aQ column (150 × 2.1 mm, dp = 2.6 μm, Thermo Fisher Scientific) was protected
volume was 5.0 μL. The temperature of the autosampler rack was 4°C, and the temperature of the
column was maintained at 50°C. Mobile phase A consisted of water with 0.1% (v/v) formic acid and
mobile phase B consisted of acetonitrile: methanol (1:1) with 0.1% (v/v) formic acid.
assay setting with the positive voltage applied to the ESI capillary was set at 4000 V, and the capillary
The next series has as its system OATP1B2. In words: Plasma level and DRG/plasma ratio of α-tocopherol in mice (biomarker of OATP1B2 function). The format is in vivo, mouse. Conditions: WT mice treated with the inhibitor; plasma.
Series [3] addresses T1, mOATP1B2. In words: Vincristine uptake, HEK293 cells overexpressing mOATP1B2. The format is in vitro ADME. An excerpt:
(§1) Relative uptake is expressed as percentage change compared with empty vector controls (n = 4–14 per group). […] Human OATP1B1 and OATP1B3 transporter–overexpressed cells were used as positive controls; empty vector controls were used as the negative control. LD, 100 bp ladder. […] Mechanical allodynia (C), thermal hyperalgesia (D), and sciatic nerve maximal action potential amplitudes (E) are expressed as percentage change relative to baseline values (n = 6–8 per group). Statistical analysis was performed using a 2-way ANOVA with Bonferroni’s post hoc test. **P < 0.01, ***P < 0.001, ****P < 0.0001, compared with baseline values. […] Data are shown as mean ± SEM.
Axioskop WideField Light Microscope, as described previously (10). Representative images were captured with a QIClick Digital CCD color camera.
The histograms of g-ratio (axonal diameter/whole fiber diameter as a measure of myelination degree in each fiber) distribution were generated. An observer blinded to the group compositions performed all the morphometric determinations. […]
After incubation, transport was halted by aspirating radiolabeled drug, and rinsing the cells three times with ice-cold 1X PBS. Total radioactivity originating from the substrates was measured by lysing the cells with 1N NaOH, neutralized with 2N HCL, and measuring total radioactivity by liquid scintillation counting using an LS 6500 Counter (Beckman). […]

The next series deals with rOATP1A5 (Rattus norvegicus, UniProt O88397). Put plainly: Vincristine uptake screen, HeLa cells overexpressing rOATP1A5. The format is in vitro ADME. On the procedure: as §1, with “control.” for “control. LD, 100 bp ladder.”, “SEM. […]” for “SEM.”
Chain of rOATP1A5 (O88397 whole entry): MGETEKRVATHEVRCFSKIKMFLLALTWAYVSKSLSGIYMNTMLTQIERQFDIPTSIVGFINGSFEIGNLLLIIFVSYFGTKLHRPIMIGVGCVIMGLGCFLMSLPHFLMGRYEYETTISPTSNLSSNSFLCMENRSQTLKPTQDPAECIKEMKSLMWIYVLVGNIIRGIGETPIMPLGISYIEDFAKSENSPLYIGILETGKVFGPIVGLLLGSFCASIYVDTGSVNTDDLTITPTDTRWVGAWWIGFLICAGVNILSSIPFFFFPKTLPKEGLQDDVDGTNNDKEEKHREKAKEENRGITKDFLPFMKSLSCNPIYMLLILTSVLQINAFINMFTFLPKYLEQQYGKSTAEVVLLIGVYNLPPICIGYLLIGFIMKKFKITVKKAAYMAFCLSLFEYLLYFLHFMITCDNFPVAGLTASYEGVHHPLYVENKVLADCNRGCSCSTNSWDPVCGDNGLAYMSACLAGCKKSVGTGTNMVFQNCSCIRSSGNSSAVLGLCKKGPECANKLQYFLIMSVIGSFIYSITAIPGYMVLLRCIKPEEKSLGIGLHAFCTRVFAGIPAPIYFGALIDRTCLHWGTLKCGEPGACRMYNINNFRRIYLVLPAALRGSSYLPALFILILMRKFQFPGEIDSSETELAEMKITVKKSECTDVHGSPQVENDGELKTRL
transfected with transporters of interest, including hOAT1, hOAT3, hOAT4, hOATP1A2, hOATP3A1, hOATP4A1, hOATP5A1, hOATP1C1, hOATP1B1, hOATP1B3, hOATP2B1, hOCT1, hOCT2, hOCTN1, hOCTN2, hASBT, hNTCP, hNPT1, hMATE1, hOSTα/β, hPEPT1, hPEPT2, rOatp1a1, rOatp1a4, rOatp1a5, rOatp1b2, rNtcp, rAsbt, rOat1, and rOct1. Cells were transfected with expression plasmid or vector control lacking any insert using Lipofectin reagent (Invitrogen). Sixteen hours thereafter, cells were washed with transport media (OPTIMEM, Invitrogen) and treated with radiolabeled drug. […] The cellular radioactivity was quantified by liquid scintillation counting as described above. […]

The subject of another series is patients with cancer. Conditions: cited from earlier work.

Values joined by “and” are separate entries in the source; they are usually repeats but may differ in a detail not shown here. Equal values may be shown once.

`Cc1cn(-c2cc(NC(=O)c3ccc(C)c(Nc4nccc(-c5cccnc5)n4)c3)cc(C(F)(F)F)c2)cn1` [Nilotinib, nilotinib]: the “EβG uptake (% of vehicle)” value on mOATP1B2 [1] was 37.5921 % of vehicle and 30.8257 % of vehicle and 32.2185 % of vehicle. In addition, the concentration at […] came out at 11900 ng/g in series [2] (25 mg/kg) and 33700 ng/g in series [2] (100 mg/kg). Besides, the Liver nilotinib is 14.24 ng/mg tissue and 15.56 ng/mg tissue in series [2] (25mg/kg); 30.37 ng/mg tissue and 41.94 ng/mg tissue in series [2] (100mg/kg). Moreover, the “Level of α-tocopherol (% of wild-type baseline), Plasma” value in the series on OATP1B2 is 242.352% and 175.541% and 133.994%.

Consider `CC[C@]1(O)C[C@H]2CN(CCc3c([nH]c4ccccc34)[C@@](C(=O)OC)(c3cc4c(cc3OC)N(C=O)[C@H]3[C@@](O)(C(=O)OC)[C@H](OC(C)=O)[C@]5(CC)C=CCN6CC[C@]43[C@@H]65)C2)C1` [Vincristine, vincristine], for which the “Vincristine uptake (% of vector control)” value is 209.00 % of vector control and 219.00 % of vector control and 238.00 % of vector control and 218.00 % of vector control and 216.00 % of vector control and 220.00 % of vector control on mOATP1B2 [3]; 107.00 % of vector control and 77.00 % of vector control and 126.00 % of vector control and 95.00 % of vector control and 111.00 % of vector control and 145.00 % of vector control and 98.00 % of vector control at rOATP1A5. Further, the “Incidence of sensory peripheral neurotoxicity” value in the series on patients with cancer is on record as “up to 100%”.

The values above are taken from PMC10443802, “Targeting a xenobiotic transporter to ameliorate vincristine-induced sensory neuropathy” (JCI Insight, 2023).
